From patent publication US20220162257A1, “3ALPHA, 5BETA-NEUROACTIVE STEROIDS FOR THE TREATMENT OF EPILEPSY AND SEIZURE DISEASES” (USTAV ORGANICKE CHEMIE A BIOCHEMIE AV CR, V. V. I., priority 2019, published 2022) come the findings set out here.

The subject of experiment [1] is PTZ-induced seizures in zebrafish (Danio rerio). As to the kind of experiment: pentetrazol (PTZ)-induced seizures in zebrafish larvae. It counts as in vivo. The note with it: 7 dpf larvae, PTZ 5 mmol/L. On the procedure: Adults wild-type (strain AB) zebrafish (Danio rerio) were maintained at 28-29° C. on a light cycle of 14 h light:10h dark (lights on at 7 am; lights off at 9 pm) at ZeClinics animal facility (Barcelona). All procedures involving animals and their care were conducted accordingly to CEA-OH/9421/2 authorization from Government of Catalonia. Embryos obtained by pairwise mating were raised in E3 media at the controlled temperature of 28.5° C. until 7 days post-fertilization (dpf) when the experiments were performed.
The anticonvulsant activity of the claimed compounds on the nervous system of zebrafish (Danio rerio). This test is the modern alternative to tests in adult animals as Danio rerio is very versatile organism that has a number of physiological similarities to mammals, including humans (Expert Opin. Drug Metab. Toxicol. 2009, 5, 393). Steroidal compounds were tested in three concentrations (1, 3 and 5 μmol.L^−1) on 7 days post-fertilization (dpf) wild-type larvae. As a negative control, sibling larvae were incubated with DMSO 1%, which allows us to detect behavioral alterations of PTZ treated larvae. Seizures were induced by treatment of pentetrazol (PTZ) at the dose 5 mmol.L^−1. Commercially available anti-convulsant drug Topiramate was used as comparator. Results were analyzed with GraphPad Prism software and statistical significance is assessed by the One-way ANOVA statistical analysis followed by Tukey's multiple comparisons test. The zebrafish larvae locomotion and response to visual stimuli are traced and analyzed by the EthoVision XT 12 software and the DanioVision device from Noldus Information Technologies, Wageningen, The Netherlands.
This closed system consists of a camera placed above a chamber with circulating water and a temperature sensor that is set at 28° C. Individualized larvae in a 48-wells plate are placed in the chamber, which can provide different stimuli (light/dark environment, tapping, sound) controlled by the software. Prior to each experiment, larvae were left for 10 minutes in dark for acclimation, then predetermined series of alternating dark and light environment are presented to the larvae. The final experimental protocol is divided in three main part: first a 15 minutes step with light on, then a series of 5 short flashes of light to induce epileptic seizures and finally a 25 minutes dark/light alternating environments phase. Different sets of information can be extrapolated from the different phases: while the first step is useful to detect changes in the total larvae locomotion, the second part allows us to analyze the larval response to a seizure-inducing visual stimulus and measure the seizure characteristics: the maximum velocity and the number of angles turns (specific of seizure erratic movement). The final phase is useful to detect anomalies in larval movement and deviations from the stereotyped behavior (natural locomotor behavior of zebrafish is active in dark and immobile in light). The anticonvulsant effect of compounds was studied at doses of […] for the compound shown in Example 1, Example 2 and Example 3.

Experiment [2] has as its system NMDA lesion of the dorsal hippocampus in male rats. As to the kind of experiment: bilateral excitotoxic NMDA lesion of the dorsal hippocampus. The experiment is classed as in vivo, rat. The note with it: 1 mg/kg i.p. 5 minutes after NMDA lesion, evaluated 24 h. On the procedure:
The tissue damage is induced by infusing NMDA (25 mmol.L^−1) into the dorsal hippocampus in the male rats. The figures in panel (FIG. 9A) show representative images of brain slices of control animals, in panel (FIG. 9B) the group of animals which were administered the solutions containing NMDA into dorsal hippocampus (NMDA lesion) and i.p. treated by (2-hydroxypropyl)-β-cyclodextrin (CDX) and in panel (FIG. 9C) brain slices of the animals, with NMDA lesions of the dorsal hippocampus and i.p. treated by the Compound of Example 1 at a dose of 1 mg/kg dissolved in CDX.
The neuroprotective effect of the Compound from Example 1 was tested in the model of bilateral excitotoxic lesion of the dorsal hippocampus. The procedure was performed according to literature (Neuropharmacology 2011, 61, 61). This model simulates the overstimulation of NMDA receptors that occurs in the number of pathophysiological states, leading to calcium flow into the neuron's and, consequently, to apoptosis […] necrosis. Clinically, this phenomenon is manifested by neurodegeneration and CNS damage. Rats were randomly divided into three groups. […] Histological damage, e.g. the neuroprotective effect of Compound from Example 1 was evaluated by staining damaged neurons with Fluoro Jade B (Merck Millipore, Catalog Number AG310-30MG), and evaluated areas included: hippocampus-DG, hilus, CA3, CA1.

For `CC(=O)[C@H]1CC[C@H]2[C@@H]3CC[C@@H]4C[C@H](OC(=O)C5CCC(=O)N5)CC[C@]4(C)[C@H]3CC[C@]12C` (stereo partly drawn) [Example 1, (3R,5R,8R,9S,10S,13S,14S,17S)-17-Acetyl-10,13-dimethylhexadecahydro-1H-cyclopenta[a]fenantren-3-yl 5-oxopyrrolidine-2-carboxylate], in experiment [1] (doses of 1, 3 and 5 mg/kg), the “epileptiform locomotor activity in the dark phase/light test, sedation” value is recorded as “decreased epileptiform locomotor activity in the dark phase/light test without causing sedation”. The “locomotor activity epileptiform induced by PTZ (spontaneous locomotor activity, maximum velocity, angle turns)” value in experiment [1] (doses of 1, 3 and 5 mg/kg (1, 3 and 5 μmol/L in the source)) is reported as “significantly reduced the locomotor activity epileptiform induced by PTZ”. The “dorsal hippocampus damage (Fluoro Jade B staining)” value in experiment [2] is “significant reduction in the dorsal hippocampus damage”.
